Measured values published in publication PMC11431785, “From In Vitro Promise to In Vivo Reality: An Instructive Account of Infection Model Evaluation of Antimicrobial Peptides” (International Journal of Molecular Sciences, 2024).
Residues, ends and D or L forms follow the SMILES beside them. No end group written: not given here.

Tests used:
[1] = cited from earlier work; for t1/2: human serum mixed 1:1 with peptide 1 mM in water, 37 °C with stirring, aliquots 0-1440 min, TCA precipitation, HPLC
From the text: (§1) Table 1 Sequence and properties of peptides in this study. | column: t1/2 (min) || In this work, we focus on crotalicidin (Ctn), a 34-residue AMP from the venom of Crotalus durissus terrificus, a South American pit viper. […] It is, however, slightly toxic to eukaryotic cells, including cancer cells, which makes it a good anticancer peptide (ACP) candidate. Virtual Ctn dissection with elastase yields two fragments, Ctn[1-14] and Ctn[15-34]. While the former (KRFKKFFKKVKKSV) retains the α-helical conformation of Ctn, it loses both the anticance ...

Balb/c mice [2] = experiment: Sighting study (tolerance in mice); type: in vivo, mouse; conditions: for tolerance in sighting study: i.p., 30 mg/kg for Ctn[15-34] and Ctn[15-34] re, 3 mg/kg for Ctn re as initial doses; for time to death of an animal: sighting study, one animal
Description: To determine the maximum lethal dose and appropriate doses for the main study, a sighting study (Figure 2A) was first conducted. Peptides (Ctn[15-34], Ctn[15-34] re and Ctn re) were administered intraperitoneally (i.p.) at initial doses of 30 mg/kg for Ctn[15-34] and Ctn[15-34] re and 3 mg/kg for Ctn re. If no toxicity signs were observed, the dose was increased. If toxicity signs or death occurred, a lower dose was administered to another animal until an adequate dose was found. After the sighting study was completed, two main studies were performed.
(§2) Nine clinical parameters were assessed by a scoring system (see Table S1). For each parameter a score from 0 to 3 in increasing severity was used. In the sighting (tolerance) study, the clinical score was measured at 10 min, 30 min, 1 h, 2 h, 4 h, 7 h, 24 h, and 48 h after peptide administration. In assays 1 and 2 of the tolerance study, scoring was recorded twice a week for 2 weeks. In the efficacy study, the clinical score was recorded every 2–3 h on day 0 and twice a day on days 1 and 2. An animal was euthanized if it scored 3 on any parameter, or if a combined score of 7 or above was reached.

Balb/c mice [3] = experiment: Tolerance assay 1; type: in vivo, mouse; conditions: single i.p. dose, 30 mg/kg Ctn[15-34], 3 mg/kg Ctn re, five female mice per group, 14 days
Description: Assay 1: […] randomly distributed groups of five female mice each were used for Ctn[15-34] (30 mg/kg) and Ctn re (3 mg/kg) and negative control (HBS). Ctn[15-34] re was not included due to spontaneous mortality in the sighting study, even at low concentrations. The peptide was administered i.p., and mice were monitored twice on day 0, once a day until day 4, and then three times a week. The study lasted for 14 days, after which the animals were euthanized, and a systematic necropsy was performed.
(§3) Body weight (BW, g) gain (%) was determined at different stages. In the tolerance assays, BW gain was recorded before inoculation and twice a week for 2 weeks. In the efficacy studies, BW gain was likewise measured before inoculation and then twice a day.
as §2

A. baumannii [4] = experiment: Histopathology: hematoxylin and eosin stain and tissue Gram stain; type: in vivo, mouse; conditions: infected and treated mice
Description: Following termination of the animals, the following organs were harvested and preserved: right lung, digestive system, pancreas, kidneys, liver, spleen, and brain. These organs were fixed in paraformaldehyde at 4 °C for 24 h.
The tissue processing proceeded through a stepwise procedure. Firstly, the tissues underwent a rinse with formalin for 1.5 h, followed by cleaning with distilled water for 5 min. Subsequently, they were dehydrated using a series of graded ethanol solutions: 80% ethanol for 1 h, 96% ethanol for two consecutive immersions lasting 1 h each, and finally, 100% ethanol for 2 consecutive immersions of 1 h each and an additional immersion for 1.5 h. Following dehydration, the tissues were submerged in xylene for two immersions, each lasting 1.5 h, before being placed in hot liquid paraffin for two consecutive immersions of 1 h each and an additional immersion of 2 h. The treated specimens were embedded in tissue cassettes using a TissueTek embedding console and allowed to cool until the paraffin solidified.
From each paraffin block, […] sections were cut using a microtome (Leica) and mounted on slides. These slides underwent rehydration through a series of graded alcohols: 100% ethanol for 5 min, 85% ethanol for 5 min, 70% ethanol for 5 min, and distilled water. […] After drying, the sections were analyzed using a microscope (Leica DMR, Leica Biosystems, IL, United States). […]

Balb/c mice [5] = experiment: Tolerance assay 2; type: in vivo, mouse
Description: Assay 2: Two randomly distributed groups of six female mice each were given two different concentrations of Ctn[15-34] (30 and 20 mg/kg). Each animal was treated with each dose three times a day for three days.
as §3, §2

[6] = fragments compared with Ctn; cited from earlier work
From the text: as §1, with “In” for “Table 1 Sequence and properties of peptides in this study. | column: t1/2 (min) || In”

A. baumannii [7] = experiment: Efficacy assay 2 in mouse systemic infection model; type: in vivo
Description: (§4) A systemic infection model was established in mice, as described before. Briefly, an aliquot from A. baumannii stock in 15% glycerol at −80 °C was taken to culture in 3 mL of LB overnight at 37 °C and 250 rpm. After an OD600 reading to adjust bacterial concentration, the culture was diluted with an identical volume of 10% porcine mucin (an enhancer of bacterial infectivity) to a final 1 × 10^8 CFU/mL concentration. A 10 mL/kg inoculation volume was used for each animal.
Assay 2: In total, 24 mice (12 male, 12 female) randomly distributed into six groups were infected i.p. as described above, then treated in duplicate groups with Ctn[15-34] (20 mg/kg), colistin (5 mg/kg, positive control) or vehicle (HBS, negative control). Treatment (performed blindly) was applied i.p. 2 h after infection and then every 4 h during day 0, and thrice daily for the next 2 days. All animals were checked for clinical signs twice a day for three days, as described in Table S1. On day 2, animals were euthanized with a 200 mg/kg i.p. dose of pentobarbital.
as §2

A. baumannii [8] = experiment: Colony-forming units (CFU) in mouse tissues; type: in vivo
Description: CFUs in the spleen and lungs of animals in the efficacy studies were counted after euthanasia. One lung and half of the spleen were extracted from each animal. Animals found dead overnight were excluded. The organs were weighed and homogenized in 1 mL of HBS. Subsequently, six serial 10-fold dilutions were prepared, each dilution seeded on a Petri dish with LB-agar and colonies counted after 16 h incubation at 37 °C. Final CFU counts are expressed relative to organ weight (CFU/g).

A. baumannii [9] = experiment: Efficacy assay 1 in mouse systemic infection model; type: in vivo
Description: as §4
Assay 1: A total of 24 mice (12 male, 12 female) randomly distributed into four groups were infected i.p. as described above, then each group was treated with Ctn[15-34] (30 mg/kg), Ctn re (3 mg/kg), colistin (10 mg/kg, positive control) or vehicle (HBS, negative control). Treatment (performed blindly) was applied 2 h after infection in a single i.p. dose. […]
as §2, with “For each parameter a score from 0 to 3 in increasing severity was used.” left out

[10] = test system: 1BR3G human fibroblast cells; conditions: cytotoxicity, RPMI 2% FBS, Cell Titer Blue, triplicate; cited from earlier work
From the text: Table 1 Sequence and properties of peptides in this study. | column: IC50 (μM)

A. baumannii [11] = conditions: MHB, inoculum 5 × 10^5 CFU/mL, 20–22 h at 37 °C, 0.04% BSA and 0.002% acetic acid, duplicate; cited from earlier work
From the text: Table 1 Sequence and properties of peptides in this study. | column: MIC (μM) A. baumannii

CC[C@@H](C)[C@@H](NC(=O)CNC(=O)[C@H](NC(=O)[C@H](NC(=O)[C@H](NC(=O)[C@H]1CCCN1C(=O)[C@H](N)Cc1ccccc1)[C@H](C)CC)[C@H](C)O)C(C)C)C(=O)N[C@@H](C(=O)N[C@H](CCSC)C(=O)N1CCC[C@@H]1C(=O)N[C@H](CCCCN)C(=O)N[C@H](CCCCN)C(=O)N[C@H](Cc1ccccc1)C(=O)N[C@@H](C(=O)N[C@H](CCCCN)C(=O)N[C@H](CCCCN)C(=O)N[C@H](CC(C)C)C(=O)N[C@H](CCCNC(=N)N)C(=O)N[C@H](CCCCN)C(=O)N[C@H](CCCCN)C(=O)N[C@@H](C(=O)N[C@H](CO)C(=O)N[C@H](CCCCN)C(=O)N[C@H](CCCCN)C(=O)N[C@@H](C(=O)N[C@H](CCCCN)C(=O)N[C@H](CCCCN)C(=O)N[C@H](Cc1ccccc1)C(=O)N[C@H](Cc1ccccc1)C(=O)N[C@H](CCCCN)C(=O)N[C@H](CCCCN)C(=O)N[C@H](Cc1ccccc1)C(=O)N[C@H](CCCNC(=N)N)C(=O)N[C@H](CCCCN)C(N)=O)C(C)C)C(C)C)[C@H](C)CC)C(C)C [Ctn re] (HELM PEPTIDE1{[dF].[dP].[dI].[dT].[dV].G.[dI].[dV].[dM].[dP].[dK].[dK].[dF].[dI].[dK].[dK].[dL].[dR].[dK].[dK].[dV].[dS].[dK].[dK].[dV].[dK].[dK].[dF].[dF].[dK].[dK].[dF].[dR].[dK].[am]}$$$$V2.0)
t1/2 [1]: 3.52 h
tolerance in sighting study (Balb/c mice [2]): viable at the predicted dosages
clinical condition in tolerance assay 1 (Balb/c mice [3]): most animals showed improved clinical conditions in the following days

CC[C@@H](C)[C@@H](NC(=O)CNC(=O)[C@H](NC(=O)[C@H](NC(=O)[C@H](NC(=O)[C@H]1CCCN1C(=O)[C@H](N)Cc1ccccc1)[C@H](C)CC)[C@H](C)O)C(C)C)C(=O)N[C@@H](C(=O)N[C@H](CCSC)C(=O)N1CCC[C@@H]1C(=O)N[C@H](CCCCN)C(=O)N[C@H](CCCCN)C(=O)N[C@H](Cc1ccccc1)C(=O)N[C@@H](C(=O)N[C@H](CCCCN)C(=O)N[C@H](CCCCN)C(=O)N[C@H](CC(C)C)C(=O)N[C@H](CCCNC(=N)N)C(=O)N[C@H](CCCCN)C(=O)N[C@H](CCCCN)C(N)=O)[C@H](C)CC)C(C)C [Ctn[15-34] re] (HELM PEPTIDE1{[dF].[dP].[dI].[dT].[dV].G.[dI].[dV].[dM].[dP].[dK].[dK].[dF].[dI].[dK].[dK].[dL].[dR].[dK].[dK].[am]}$$$$V2.0)
t1/2 [1]: 15.4 h
time to death of an animal (Balb/c mice [2]; 5 mg/kg i.p.): 33 min
time to death of an animal (Balb/c mice [2]; 15 mg/kg i.p.): ≤ 6 min
time to death of an animal (Balb/c mice [2]; 30 mg/kg i.p.): ≤ 3 min
tolerance in sighting study (Balb/c mice [2]): toxic

KKRLKKIFKKPMVIGVTIPF-NH2 [Ctn[15-34]]
t1/2 [1]: 12.8 h
tolerance in sighting study (Balb/c mice [2]): viable at the predicted dosages
hematoxylin and eosin staining of spleen, lung, liver and kidney (A. baumannii [4]): apoptosis was noted in the spleen lymphocytes of one animal
clinical condition in tolerance assay 1 (Balb/c mice [3]): most animals showed improved clinical conditions in the following days
clinical signs in tolerance assay 2 (Balb/c mice [5]; 20 mg/kg i.p. thrice daily for 3 days, compared with 30 mg/kg): reversible and consistently lower than for the 30 mg/kg group
BW loss during the first 24 h (Balb/c mice [5]; 30 and 20 mg/kg i.p. thrice daily for three days, both dosage groups, six female mice each): 6–9%

KRFKKFFKKVKKSV [Ctn[1-14], fragment of crotalicidin, residues 1-14]
anticancer and antimicrobial properties [6]: loses both the anticancer and antimicrobial properties

LL-37: AMP named for comparison of half-life [reference compound]
half-life ([1]; typical AMP named for comparison with Ctn[15-34], no reference given): 1 h

colistin
clinical signs of treated infected animals (A. baumannii [7]; efficacy study 2, thrice daily dose of colistin, compared to the previous study): Increased toxicity
female animals surviving at the endpoint (A. baumannii [7]; efficacy study 2, thrice daily i.p. dosing, female mice): 75%
male animals surviving at the endpoint (A. baumannii [7]; efficacy study 2, thrice daily i.p. dosing, male mice): 50%
Gram stain, bacterial load in spleen, lung, liver and kidney (A. baumannii [4]): no evidence of bacterial survival
CFU/g in left lung and spleen (A. baumannii [8]; after both efficacy studies, positive control group): 10^1–10^2 CFU/g
bacterial presence in the spleen or lungs (A. baumannii [8]; efficacy study 2, animals not surviving the thrice daily colistin dosage): nearly negligible
clinical signs of treated infected animals (A. baumannii [9]; efficacy assay 1, colistin 10 mg/kg single i.p. dose): weight loss on the first day with subsequent recovery
survival rate (A. baumannii [9]; efficacy assay 1, single i.p. dose 2 h after infection, colistin 10 mg/kg, 3 days): 100%

crotalicidin [Ctn]
IC50 [10]: 14.3 µM
t1/2 [1]: 1.18 h
MIC (μM) A. baumannii (A. baumannii [11]): 0.78 µM
